Source: patent US12247022B2, “Combinations for treatment of NASH/NAFLD and related diseases” (Pfizer Inc., priority 2018, dated 2025)

How the values were obtained:
Assay type in all cases: in vivo, rat
[1] = system: alpha smooth muscle actin (αSMA); test: Hepatic αSMA immunohistochemistry, CDAHFD fed rats; conditions: twice daily for 6 weeks; Compound A 5 mg/kg, Compound D 30 mg/kg, or co-administration; 12 weeks on CDAHFD
Procedure: (§1) A randomized, vehicle-controlled, 5-parallel arm study was conducted in male Wistar-Han rats (Charles River (Boston, MA)) fed a choline-deficient and high fat diet (CDAHFD) (Research diets; A16092003) to identify differences in improvements in markers of hepatic inflammation and fibrosis when administering either Compound A or Compound D alone as monotherapy or in combination. Standard laboratory conditions were used to house 60 rats (˜200 g); they were double housed and kept under 12:12-hour reverse light-dark schedule (lights off at 8:00 AM). Rats were fed choline deficient and high fat diet (CDAHFD) beginning 6-weeks prior to initiation of the study. Rats, randomized into 4 dosing groups (n=12/group), received twice daily administration of vehicle, Compound A (5 mg/kg) monotherapy, Compound D (30 mg/kg) monotherapy, or co-administration Compound A (5 mg/kg) and Compound D (30 mg/kg) for a period of 6-weeks. […] Histology was assessed following 6-weeks of drug administration which corresponded to 12 weeks on the CDAHFD. […]
(§2) Following the 12-weeks on CDAHFD, the animals were sacrificed by CO2 asphyxiation. […] A portion of the pulverized liver sample from each animal was processed and analyzed for gene expression markers of fibrogenesis. Rat taqman probes against […]SMA and COL1A1 were all assessed using Actb as housekeeping gene on qPCR. […]

[2] = system: alpha smooth muscle actin (αSMA); test: Hepatic αSMA gene expression (qPCR), CDAHFD fed rats; conditions: twice daily for 6 weeks, Compound A 5 mg/kg, Compound D 30 mg/kg, or co-administration, Actb
Procedure: as §1
(§3) Following the 12-weeks on CDAHFD, the animals were sacrificed by CO2 asphyxiation. […] A portion of the pulverized liver sample from each animal was processed and analyzed for gene expression markers of fibrogenesis. Rat taqman probes against […]SMA and COL1A1 were all assessed using Actb as housekeeping gene on qPCR.

[3] = system: COL1A1; test: Hepatic COL1A1 gene expression (qPCR), CDAHFD fed rats; conditions: twice daily for 6 weeks, Compound A 5 mg/kg, Compound D 30 mg/kg, or co-administration, Actb
Procedure: as §1, §3

[4] = system: SCD1; test: Hepatic lipogenic gene expression (qPCR), Western diet fed rats: SCD1; conditions: Actb housekeeping gene, Day 28 liver
Procedure: (§4) A randomized, vehicle-controlled, 8-parallel arm study was conducted in male Sprague-Dawley rats (Charles River (Boston, MA)) to obtain circulating and hepatic TG levels. Standard laboratory conditions were used to house 96 rats (˜200 g); they were double housed and kept under 12:12-hour reverse light-dark schedule (lights off at 8:00 AM). Rats were randomized into chow or Western diet groups and dose groups upon arrival and were given a 14-day lead-in period on either standard rat chow or Western diet prior to the start of the study. Standard Laboratory Rodent chow diet, 5053, was from LabDiet (PMI, St Louis, Missouri). Western Diet, D12079Bi, was from Research Diets (New Brunswick, New Jersey).
(§5) Starting on Day 1 of the study, rats were dosed orally (10 mL/kg) with either vehicle control (0.5% MC (wt/volume %) in dionized water), low or high doses of Compound A (1 mg/kg or 10 mg/kg QD, respectively), low or high doses of Compound D (5 mg/kg or 30 mg/kg BID respectively), or co-administration of low doses (Compound A at 1 mg/kg QD and Compound D at 5 mg/kg BID), or co-administration of high doses (Compound A at 10 mg/kg QD and Compound D at 30 mg/kg BID) […]
(§6) Another portion of the pulverized liver was processed and analyzed for lipogenic gene expression. Rat taqman probes against ACC1, FASN, SCD1, PCSK9 and SREBP-1c were all assessed using Actb as housekeeping gene on qPCR.

[5] = system: fatty acid synthase (FASN); test: Hepatic lipogenic gene expression (qPCR), Western diet fed rats: FASN; conditions: Actb housekeeping gene
Procedure: as §4, §5, §6

[6] = system: Western diet fed Sprague Dawley rats; test: Fasted plasma triglyceride (TG), Western diet fed rats, oral dosing; conditions: oral monotherapy, 4 hour fast, 2 hours post-dose
Procedure: as §4
For these studies, vehicle was prepared to make a 0.5% (wt/volume) of methyl cellulose (MC, Sigma Aldrich; 274429) in deionized water. The stock solutions with either Compound A (prepared from the tris salt) or Compound D were prepared with the respective compound to provide a concentration such that 10 ml of the solution would deliver the desired mg/kg dosage amount, where the average weight of the rats used was about 200 g.
Starting on Day 1 of the study, rats were dosed orally (10 mL/kg) with either vehicle control (0.5% MC (wt/volume %) in dionized water), low or high doses of Compound A (1 mg/kg or 10 mg/kg QD, respectively), low or high doses of Compound D (5 mg/kg or 30 mg/kg BID respectively), or co-administration of low doses (Compound A at 1 mg/kg QD and Compound D at 5 mg/kg BID), or co-administration of high doses (Compound A at 10 mg/kg QD and Compound D at 30 mg/kg BID)
Fasted plasma analytes: Blood for determining fasted plasma TG was collected after a 4 hour fast, 2 hours post-dose (2 hours into the dark cycle) via lateral tail vein, transferred to BD Microtainer tubes coated with K2EDTA (PN365974), and centrifuged at 4° C. The resulting plasma samples were then analyzed on a Siemens Chemistry XPT clinical analyzer (Malven, PA) using Siemens triglycerides 2 assay reagents (ref 10335892).

[7] = system: Ionized calcium binding adaptor molecule 1 (Iba1); test: Hepatic Iba1 staining, CDAHFD fed rats; conditions: twice daily for 6 weeks; Compound A 5 mg/kg, Compound D 30 mg/kg, or co-administration; 12 weeks on CDAHFD
Procedure: as §1, §2

Row | Compound | reduction of liver αSMA staining [1] [%] | hepatic αSMA gene expression [2] | hepatic collagen A1A (COL1A1) gene expression [3] | hepatic SCD1 gene expression relative to Western Diet fed and vehicle treated animals [4] | hepatic FASN gene expression relative to Western Diet fed and vehicle treated animals ([5]; Compound A high dose only (10 mg/kg QD)) | increase in fasted plasma TG, relative to vehicle administered Western diet fed rats ([6]; high dose (Compound A 10 mg/kg QD)) [fold] | increase in fasted plasma TG, relative to vehicle administered Western diet fed rats ([6]; low dose (Compound A 1 mg/kg QD)) [fold] | reduction of Iba1 staining [7] | hepatic FASN gene expression relative to Western Diet fed and vehicle treated animals ([5]; Day 28 liver) | reduction of fasted plasma TG, relative to vehicle administered Western diet fed rats ([6]; high dose (Compound D 30 mg/kg BID)) [%] | reduction of fasted plasma TG, relative to vehicle administered Western diet fed rats ([6]; low dose (Compound D 5 mg/kg BID)) [%]
1 | COc1cc(C(=O)N2CCC3(CC2)CC(=O)c2c(cnn2C(C)C)C3)cc(-c2ccc(C(=O)O)cc2)n1 [Compound A, 4-(4-(1-isopropyl-7-oxo-1,4,6,7-tetrahydrospiro[indazole-5,4′-piperidine]-1′-carbonyl)-6-methoxypyridin-2-yl)benzoic acid] | 41 | reduced | reduced | trended to further increase | trended to further increase | 1.7 | 2.4 | 15% |  |  | 
2 | CCOc1cccnc1Oc1cncc(-c2ncc(C(=O)N[C@H]3CCOC3)cn2)c1 [Compound D, (S)-2-(5-((3-ethoxypyridin-2-yl)oxy)pyridin-3-yl)-N-(tetrahydrofuran-3-yl)pyrimidine-5-carboxamide] | 23 | reduced | reduced | decreased expression |  |  |  | did not alter | decreased expression | 35 | 20
